# Test results from ChEMBL document CHEMBL3507680, “University of Dundee, Gates Library screen for HepG2 cell viability”.
# Test: Human HepG2 cell viability assay in 384 well format
# Format: toxicity, cell-based
# Design: dose 125 nL, time 70.5 hour; cytotoxicity at 70.5 h: concentration not given beside the values
# Settings: HepG2 cells, read-out: Inhibition
row,SMILES,cytotoxicity at 70.5 h
1,CC[C@H]1CN2CC[C@H]1C[C@@H]2CNCc1ccc(OC(F)(F)F)cc1,-7.22%
2,CN(C)[C@H]1C[C@@H](Cc2cc(-c3ccc(F)cc3)on2)C1(C)C,-0.292%
3,COc1ccc(CN2C[C@@H]3OCC(=O)N(CC(N)=O)[C@@H]3C2)cc1,2.86%
4,O=C(c1cccnc1)N1C[C@@H]2OCC(=O)N(Cc3cccnc3)[C@@H]2C1,-3.03%
5,CC(C)NC(=O)NC[C@H]1C[C@@H]2CCN1C[C@@H]2CN(C)c1ccccc1,-0.173%
6,Cc1nn(-c2ccccn2)c(C)c1[C@@H]1C=C[C@@H](NC(=O)NC(C)C)C1,0.445%
7,CCNC(=O)N1C[C@@H]2OCC(=O)N(Cc3cccnc3)[C@@H]2C1,-1.41%
8,CC(=O)Nc1ccc([C@@H](O)[C@H]2COCC(=O)N2CC(C)C)cc1,1.58%
9,COCC(=O)Nc1ccc([C@@H](O)[C@H]2COCC(=O)N2C)cc1,-1.45%
10,COC(=O)[C@H]1CN(C(=O)NC(C)C)CCN1C(=O)C1CCCCC1,10.7%
11,CC(C)C[C@@H]1N[C@H](C(=O)NCC2CC2)Cc2c[nH]c3cccc1c23,0.485%
12,CC(C)(C)C(=O)N[C@H]1C[C@@H](Cc2cc(CN3CCOCC3)on2)C1(C)C,-6.62%
13,CC(=O)N[C@H]1C[C@@H](c2nc(-c3ccc4c(c3)OCO4)no2)N(C)C1,2.89%
14,Cc1ccc(S(=O)(=O)Cc2noc([C@@H]3C[C@@H](O)CN3C)n2)cc1,-2.56%
15,c1ccc(-c2nnc([C@H]3CCN(C4CCC4)C3)o2)cc1,0.134%
16,COc1ccccc1CN1CC[C@H](c2nnc(-c3cncn3C)o2)C1,-1.04%
17,c1coc(-c2nnc([C@H]3CCN(Cc4ccc5c(c4)OCO5)C3)o2)c1,-6.68%
18,O=C1CO[C@H]2CN(Cc3ccc(C(F)(F)F)cc3)C[C@H]2N1,-2.56%
19,CC(C)(C)c1coc([C@@H]2COCCN2Cc2c[nH]cn2)n1,2.66%
20,CN(C)[C@@H]1CO[C@H](CNC(=O)c2cccs2)[C@H]1O,-8.01%
21,CC(=O)N1CCC(N[C@@H]2CO[C@H](CNC(=O)c3cccs3)[C@H]2O)CC1,4.51%
22,O=C(NC[C@H]1OC[C@@H](NCc2ccccn2)[C@@H]1O)N1CCOCC1,-10.1%

row,SMILES,cytotoxicity at 70.5 h
1,O=C1COC[C@H]([C@H](O)c2ccc(NC(=O)c3cccnc3)cc2)N1,-5.64%
2,O[C@@H]1C[C@@H](c2nc(-c3ccc(OC(F)(F)F)cc3)no2)N(CC2CC2)C1,-4.09%
3,CCNC(=O)NC[C@@H]1C=C(C)[C@H](CC(=O)NCCN(C)C)C[C@H]1C(C)C,-0.736%
4,Cn1cncc1-c1nnc([C@H]2CCN(Cc3cccnc3)C2)o1,-2.71%
5,CCCn1cnnc1-c1nc2c([nH]1)CC(c1ccc(Cl)cc1)CNC2=O (centres undefined),8.16%
6,COCCN1CCCC(CN(C)c2nc3c(s2)c(C)nn3C)C1 (centres undefined),-4.58%
7,CC1(C)CN(C(=O)c2cnc(-c3ccccn3)nc2)CC[C@]1(C)O,0.152%
8,COc1nccnc1-c1cc(NC2CCNCC2)nc2[nH]ccc12,-0.195%
9,Cc1cc(C)c2ncn(CCC(C)O)c(=O)c2c1 (centres undefined),-5.19%
10,C[C@@H]1CN(c2nc3c(cc2C(N)=O)CCC3)CC[C@@]1(O)C1CCC1,-12.9%
11,CN(C)Cc1nnc(C(=O)N(C)Cc2ccc(F)cc2)o1,-4.17%
12,O=C(CC[C@@H]1CCCN2CCCC[C@H]12)NCCc1cc(O)ncn1,-11.3%
13,CCC[C@@H]1CN(Cc2cnc3c(S(C)(=O)=O)cnn3c2)C[C@H]1N(C)C,-7.08%
14,Cc1ccc(N2Cc3cnn(Cc4ccc(F)cc4)c3C2)nn1,-4.14%
15,CN(C)c1ncnc2c1CCN(C(=O)c1sccc1S(N)(=O)=O)C2,-2.96%
16,CC(C)C1=NOC(c2nc(Cc3ccccc3)no2)C1 (centres undefined),-1.11%
17,CCn1c(CN2CCCC2)nnc1C1CCN(Cc2ccncc2)CC1,19.4%
18,Cc1cc(C(=O)N2CCN(Cc3ccco3)C(CCO)C2)cc(=O)[nH]1 (centres undefined),21.1%
19,COc1ccc(OCc2nc(C(=O)NCCN3CCOCC3)co2)cc1,-5.59%
20,OC1(CNCCSc2ccccn2)CNCCOC1 (centres undefined),1.38%
21,O=c1[nH]c2cc3c(cc2cc1CN1CCCC1c1ccccn1)CCC3 (centres undefined),9.53%
22,Cc1cccc(OCC2CCCN(C(=O)CN(C)C3CCNCC3)C2)c1 (centres undefined),11.3%

row,SMILES,cytotoxicity at 70.5 h
1,COCc1cn(CC2CCN(Cc3c(C)[nH]c4ccccc34)CC2)nn1,-7.19%
2,CC(C)CN(C)Cc1c[nH]nc1-c1ccc(F)cc1F,-15%
3,O=C1CC(c2cccs2)c2cnn(C3CCCC3)c2N1 (centres undefined),6.7%
4,CN(C)Cc1nnc(C2CCN(C(=O)CCc3cccs3)CC2)n1C,-8.36%
5,CN(C)C(=O)N1C[C@@H]2CC[C@H](C1)N(C(=O)CCCn1cncn1)C2,-10.6%
6,O=C1N(Cc2cccc(F)c2F)CCCC1(O)CNC1CCCC1 (centres undefined),-2.45%
7,CC(C)CN1CCCn2nc(CNC(=O)c3cccnc3O)cc2C1,14.1%
8,Cn1cccc1-c1cc(C(=O)N2CCCC2c2cccnc2)[nH]n1 (centres undefined),-4.46%
9,CN(CCN1CCCCC1)C(=O)c1cc(CN2CCOCC2)on1,2.75%
10,CC(C)c1nc(N2CC(N3CCCCC3C)C2)c2cnn(C)c2n1 (centres undefined),12%
11,O=C(NC1CCCC1)N1CCCC(c2nccn2Cc2ccncc2)C1 (centres undefined),0.665%
12,O=C(NC[C@@H]1CCCN1)c1cc(COc2cccc(C(F)(F)F)c2)[nH]n1,-1.5%
13,CN(CCc1ccccc1)c1cnn(CC(=O)N2CCSCC2)c(=O)c1,-3.48%
14,Cc1ccccc1CC1(CO)CCCN(c2ncccc2C#N)C1 (centres undefined),-4.27%
15,CN(C)C(=O)N1CCn2nc(CNC(=O)CCC(F)(F)F)cc2C1,-3.05%
16,CSc1ccccc1CN1CCn2nc(CNC(C)=O)cc2C1,-0.83%
17,CCNC(=O)[C@@H]1C[C@@H](NC(=O)c2cccnc2O)CN1Cc1ccsc1,-11.2%
18,NC(=O)NCC(=O)N1C[C@H]2CC[C@@H]1CN(Cc1ccccc1)C2,1.42%
19,CN1CC(c2ccccc2)CC2(CCN(CC(=O)N(C)C)CC2)C1 (centres undefined),-8.78%
20,O=C(c1ccc[nH]1)N1C[C@H]2CC[C@@H]1CN(c1ncccn1)C2,-8.11%
21,O=C(c1cccc(S(=O)(=O)NCCCc2ncc[nH]2)c1)N1CCOCC1,-9.14%
22,CC[C@@]1(O)CCN(C(=O)c2ccsc2)C[C@H]1O,-7.08%

row,SMILES,cytotoxicity at 70.5 h
1,CC(C)(C)c1cc(CN2CC[C@@H](NC(=O)c3cccnc3)[C@H](O)C2)n[nH]1,0.738%
2,N#Cc1c(SCCN2CCOCC2)sc2c(O)cc(O)nc12,17.3%
3,N#Cc1c(SCCN2CCCCCC2)sc2c(O)cc(O)nc12,12.1%
4,CCC(NC(=O)c1c(C(=O)O)cnn1C)c1ccc(C)cc1C (centres undefined),-3.68%
5,CC(C)c1cc(CSCCC(=O)O)no1,-4.33%
6,Cc1c2c(C(F)F)cc(SCC(=O)O)nc2nn1C,-2.86%
7,CCn1cc(N)c(-c2nnc3n2CCC3)n1,13.1%
8,CCOc1ccccc1C(=O)Nn1c(C)cc(C)cc1=O,-6.5%
9,Cn1ncc(NC(=O)c2noc3c2CCCC3)c1C(N)=O,-5.51%
10,CCN(CC)C1COc2c(cc(Br)c(C)c2Br)C1=O (centres undefined),-7.72%
11,CCN(CC)C1COc2ccc(Br)cc2C1=O (centres undefined),-5.6%
12,CCc1c(O)n(C(C)CC)c(SCC(=O)c2ccccc2)nc1=O (centres undefined),-8.65%
13,Cn1cc(C(=O)NC(Cn2cccn2)C(C)(C)C)cn1 (centres undefined),2.11%
14,Cc1cn(Cc2ccc(F)c(F)c2)nc1N,19.5%
15,O=C(CSc1nccc(-c2ccc3c(c2)OCO3)n1)N1CCOCC1,-1.22%
16,CCn1cc(-c2cc(C(F)F)n3nc(CCC(=O)O)nc3n2)cn1,-2.48%
17,Cc1cn(Cc2ccc(F)cc2)nc1N,-1.4%
18,Cc1ccc(Cn2cc(C)c(N)n2)cc1,22.1%
19,CCC1(c2ccc(NS(=O)(=O)N(C)C)cc2)CCC(=O)NC1=O (centres undefined),-2.76%
20,Cn1nnnc1SCC1COc2ccccc2O1 (centres undefined),0.146%
21,O=C1c2cc(Br)cc(Br)c2OCC1(CN1CCCC1)CN1CCCC1,-1.34%
22,CC(=O)c1ccc(OCC(C)O)cc1O (centres undefined),5.87%

row,SMILES,cytotoxicity at 70.5 h
1,CCOC(=O)COc1ccc(C(C)=O)c(O)c1,28.9%
2,Cn1c(=O)c2cc(C(=O)NCCOCC(F)(F)F)ccc2n(C)c1=O,25.9%
3,COc1cc(CNc2cnn(CC(F)F)c2)ccc1O,26.6%
4,COCc1cc(CNc2cnn(CC(F)F)c2)ccc1OC,1.97%
5,COc1cccc(CNc2cnn(CC(F)F)c2)c1,3.29%
6,COc1ccc(CNc2cnn(CC(F)F)c2)cc1,-0.452%
7,CCn1cc(CNCc2ccc(C(=O)OC)cc2)c(C)n1,-0.911%
8,COc1ccc(CNCc2cn(C)nc2C)cc1,-2.32%
9,COC(=O)N1CC(C)=C(C)CN1C(=O)Nc1ccc(Cl)c(Cl)c1,4.31%
10,Cc1cc(-n2cncn2)n2ncnc2n1,-2.11%
11,NC(=O)c1c[nH]nc1NC(=O)c1ccc(Cl)cc1,-3.88%
12,Cc1c(O)oc(-c2ccc(Br)cc2)nc1=O,53.6%
13,CCn1cc(S(=O)(=O)N(C)Cc2c(Br)cnn2CC)c(C)n1,1.71%
14,CCCn1ncc2c(C(=O)Nc3n[nH]c(SC)n3)cc(C3CC3)nc21,5.71%
15,CNc1cncc(C2CCCN2C(=O)c2ccc3oc(=O)n(C)c3c2)n1 (centres undefined),17.9%
16,CNC(=O)[C@@H](c1ccccc1F)N1CCC[C@H]1C(=O)NC1CCCC1,-5.2%
17,CNC(=O)C1(N2CCC[C@H]2C(=O)NC2CC2)CCCCC1,-3.89%
18,CNC(=O)[C@@H](c1ccccc1OC)N1CCC[C@H]1C(=O)NC1CC1,-1.71%
19,CNC(=O)[C@@H](C1CCCCC1)N1CCC[C@H]1C(=O)N(C)CCN(C)C,-4.67%
20,CNC(=O)[C@@H](CC(C)C)N1CCC[C@H]1C(=O)N(C)Cc1cccnc1,-6.49%
21,CNC(=O)[C@@H](c1ccccc1OC)N1CCC[C@H]1C(=O)NCCN(C)C,-5.36%
